Laboratory results: the NIST ThermoML archive (doi:10.1016/j.tca.2011.06.003)

Test: xn = mol fraction of the nth substance listed
Settings: 101 kPa, Liquid; for speed of sound: Sing-around technique in a fixed-path interferometer; for mass density: Vibrating tube method

NCCNCCN [di(2-aminoethyl)amine] + CC(C)O
Settings	mass density [kg/m3]	speed of sound [m/s]	viscosity [mPa·s]
293.15 K, x1 = 0.0534	803.892	1206.4	–
293.15 K, x1 = 0.1022	818.972	1244.9	–
293.15 K, x1 = 0.1556	830.953	1283.2	–
293.15 K, x1 = 0.2053	842.389	1318.6	–
293.15 K, x1 = 0.2541	852.667	1350.5	–
293.15 K, x1 = 0.3083	863.147	1383.9	–
293.15 K, x1 = 0.4044	880.002	1438.7	–
293.15 K, x1 = 0.5025	894.43	1488.6	–
293.15 K, x1 = 0.6122	909.336	1538.2	–
293.15 K, x1 = 0.711	921.252	1583.2	–
293.15 K, x1 = 0.8021	930.895	1618.9	–
293.15 K, x1 = 0.8555	936.343	1638	–
293.15 K, x1 = 0.9092	941.621	1658.5	–
293.15 K, x1 = 0.953	945.719	1673.3	–
298.15 K, x1 = 0.0532	–	–	2.514
298.15 K, x1 = 0.0534	799.63	1188.7	–
298.15 K, x1 = 0.1022	814.391	1227.2	2.884
298.15 K, x1 = 0.1556	826.675	1265.5	3.313
298.15 K, x1 = 0.2053	838.104	1300.9	3.628
298.15 K, x1 = 0.2541	848.377	1332.6	3.97
298.15 K, x1 = 0.3083	858.864	1365.9	4.268
298.15 K, x1 = 0.4044	875.743	1420.7	4.708
298.15 K, x1 = 0.5025	890.185	1470	4.984
298.15 K, x1 = 0.6122	905.106	1518.9	5.192
298.15 K, x1 = 0.711	917.035	1563.1	5.223
298.15 K, x1 = 0.8021	926.667	1599.5	5.286
298.15 K, x1 = 0.8555	932.115	1618.5	5.383
298.15 K, x1 = 0.9092	937.389	1638.7	5.441
298.15 K, x1 = 0.953	941.486	1653.4	5.54
303.15 K, x1 = 0.0532	–	–	2.087
303.15 K, x1 = 0.0534	795.321	1171.2	–
303.15 K, x1 = 0.1022	809.803	1209.5	2.388
303.15 K, x1 = 0.1556	822.362	1247.7	2.697
303.15 K, x1 = 0.2053	833.79	1282.9	2.976
303.15 K, x1 = 0.2541	844.065	1314.6	3.217
303.15 K, x1 = 0.3083	854.559	1347.8	3.423
303.15 K, x1 = 0.4044	871.471	1402.2	3.721
303.15 K, x1 = 0.5025	885.922	1452.9	3.901
303.15 K, x1 = 0.6122	900.866	1503.2	4.08
303.15 K, x1 = 0.711	912.782	1543	4.184
303.15 K, x1 = 0.8021	922.433	1579.1	4.264
303.15 K, x1 = 0.8555	927.887	1599	4.357
303.15 K, x1 = 0.9092	933.158	1619	4.423
303.15 K, x1 = 0.953	937.25	1634.5	4.47
308.15 K, x1 = 0.0532	–	–	1.858
308.15 K, x1 = 0.0534	790.957	1153.7	–
308.15 K, x1 = 0.1022	805.422	1191.8	2.064
308.15 K, x1 = 0.1556	818.019	1230	2.315
308.15 K, x1 = 0.2053	829.45	1265.1	2.526
308.15 K, x1 = 0.2541	839.731	1296.8	2.708
308.15 K, x1 = 0.3083	850.238	1329.7	2.875
308.15 K, x1 = 0.4044	867.103	1383.3	3.121
308.15 K, x1 = 0.5025	881.653	1432.7	3.296
308.15 K, x1 = 0.6122	896.616	1483.5	3.442
308.15 K, x1 = 0.711	908.535	1525.3	3.539
308.15 K, x1 = 0.8021	918.202	1561.5	3.608
308.15 K, x1 = 0.8555	923.66	1580.4	3.683
308.15 K, x1 = 0.9092	928.927	1599.6	3.734
308.15 K, x1 = 0.953	933.022	1615.1	3.771
313.15 K, x1 = 0.0534	786.529	1136.1	–
313.15 K, x1 = 0.1022	801.012	1174.3	–
313.15 K, x1 = 0.1556	813.627	1212.7	–
313.15 K, x1 = 0.2053	825.068	1247.5	–
313.15 K, x1 = 0.2541	835.36	1278.6	–
313.15 K, x1 = 0.3083	845.885	1311.4	–
313.15 K, x1 = 0.4044	862.786	1365.6	–
313.15 K, x1 = 0.5025	877.353	1415.7	–
313.15 K, x1 = 0.6122	892.409	1467	–
313.15 K, x1 = 0.711	904.278	1509.1	–
313.15 K, x1 = 0.8021	913.964	1543.4	–
313.15 K, x1 = 0.8555	919.421	1562.1	–
313.15 K, x1 = 0.9092	924.691	1580.8	–
313.15 K, x1 = 0.953	928.787	1595.2	–

NCCNCCN [di(2-aminoethyl)amine] + CC(C)CO
Settings	mass density [kg/m3]	speed of sound [m/s]	viscosity [mPa·s]
293.15 K, x1 = 0.054	815.237	1243	–
293.15 K, x1 = 0.1043	826.644	1275.2	–
293.15 K, x1 = 0.1529	836.817	1305.2	–
293.15 K, x1 = 0.2068	847.162	1337.4	–
293.15 K, x1 = 0.2535	855.512	1364.9	–
293.15 K, x1 = 0.305	863.833	1390.5	–
293.15 K, x1 = 0.4057	878.879	1439.4	–
293.15 K, x1 = 0.5036	892.182	1484.7	–
293.15 K, x1 = 0.6053	905.319	1531.6	–
293.15 K, x1 = 0.7048	919.507	1570.3	–
293.15 K, x1 = 0.8098	929.46	1613.2	–
293.15 K, x1 = 0.8522	933.916	1630.9	–
293.15 K, x1 = 0.9074	939.952	1653.2	–
293.15 K, x1 = 0.9537	944.995	1671.9	–
298.15 K, x1 = 0.054	811.313	1226.2	4.027
298.15 K, x1 = 0.1043	822.66	1258	4.548
298.15 K, x1 = 0.1529	832.792	1287.9	5.094
298.15 K, x1 = 0.2068	843.096	1319.8	5.514
298.15 K, x1 = 0.2535	851.38	1345.4	5.73
298.15 K, x1 = 0.305	859.744	1372.5	5.908
298.15 K, x1 = 0.4057	874.785	1421.6	6.024
298.15 K, x1 = 0.5036	888.088	1466.7	5.962
298.15 K, x1 = 0.6053	901.203	1511.4	5.795
298.15 K, x1 = 0.7048	915.398	1551.7	5.661
298.15 K, x1 = 0.8098	925.283	1594.3	5.603
298.15 K, x1 = 0.8522	929.73	1611.7	5.574
298.15 K, x1 = 0.9074	935.74	1633.9	5.541
298.15 K, x1 = 0.9537	940.776	1651.9	5.539
303.15 K, x1 = 0.054	807.355	1209.3	3.292
303.15 K, x1 = 0.1043	818.653	1241.1	3.707
303.15 K, x1 = 0.1529	828.735	1270.7	4.092
303.15 K, x1 = 0.2068	839.013	1302.4	4.365
303.15 K, x1 = 0.2535	847.289	1328.1	4.521
303.15 K, x1 = 0.305	855.641	1355.1	4.656
303.15 K, x1 = 0.4057	870.683	1404.1	4.762
303.15 K, x1 = 0.5036	883.968	1449.2	4.732
303.15 K, x1 = 0.6053	897.071	1493.2	4.695
303.15 K, x1 = 0.7048	911.268	1533.6	4.652
303.15 K, x1 = 0.8098	921.103	1575.5	4.575
303.15 K, x1 = 0.8522	925.54	1592.9	4.525
303.15 K, x1 = 0.9074	931.531	1614.5	4.508
303.15 K, x1 = 0.9537	936.554	1632.6	4.49
308.15 K, x1 = 0.054	803.363	1192.6	2.815
308.15 K, x1 = 0.1043	814.618	1224.2	3.146
308.15 K, x1 = 0.1529	824.666	1254	3.463
308.15 K, x1 = 0.2068	834.918	1285.4	3.654
308.15 K, x1 = 0.2535	843.178	1310.6	3.768
308.15 K, x1 = 0.305	851.532	1337.4	3.855
308.15 K, x1 = 0.4057	866.568	1386.9	3.927
308.15 K, x1 = 0.5036	879.851	1431.7	3.966
308.15 K, x1 = 0.6053	892.938	1475.8	3.919
308.15 K, x1 = 0.7048	907.117	1515.9	3.899
308.15 K, x1 = 0.8098	916.922	1556.7	3.817
308.15 K, x1 = 0.8522	921.354	1574.1	3.807
308.15 K, x1 = 0.9074	927.328	1595.3	3.789
308.15 K, x1 = 0.9537	932.338	1613.3	3.78
313.15 K, x1 = 0.054	799.326	1175.8	–
313.15 K, x1 = 0.1043	810.545	1208	–
313.15 K, x1 = 0.1529	820.566	1237.8	–
313.15 K, x1 = 0.2068	830.795	1269.1	–
313.15 K, x1 = 0.2535	839.045	1294.6	–
313.15 K, x1 = 0.305	847.399	1321.3	–
313.15 K, x1 = 0.4057	862.439	1371	–
313.15 K, x1 = 0.5036	875.718	1414.9	–
313.15 K, x1 = 0.6053	888.795	1459.1	–
313.15 K, x1 = 0.7048	902.896	1499.5	–
313.15 K, x1 = 0.8098	912.74	1538.9	–
313.15 K, x1 = 0.8522	917.161	1555.8	–
313.15 K, x1 = 0.9074	923.121	1576.3	–
313.15 K, x1 = 0.9537	928.116	1593.7	–
